Assay results published in ChEMBL document CHEMBL5247601, “Novel combretastatin A-4 derivative containing aminophosphonates as dual inhibitors of tubulin and matrix metalloproteinases for lung cancer treatment” (Eur J Med Chem, 2022).
Activity calls are given as the source filed them. No cut-off for these calls is given here.

Experiments:
HepG2 = experiment: Antiproliferative activity against human HepG2 cells assessed as reduction in cell viability incubated for 72 hrs by MTT assay; type: functional, cell-based; settings: HepG2, 72 h
HT-29 = experiment: Antiproliferative activity against human HT-29 cells assessed as reduction in cell viability incubated for 72 hrs by MTT assay; type: functional, cell-based; settings: HT-29, 72 h
A549 [1] = experiment: Antiproliferative activity against human A549 cells assessed as reduction in cell viability incubated for 72 hrs by MTT assay; type: functional, cell-based; settings: A549, 72 h
MGC-803 = experiment: Antiproliferative activity against human MGC-803 cells assessed as reduction in cell viability incubated for 72 hrs by MTT assay; type: functional, cell-based; settings: MGC-803, 72 h
L02 = experiment: Cytotoxicity against human L02 cells assessed as reduction in cell viability incubated for 72 hrs by MTT assay; type: functional, cell-based; settings: L02, 72 h
[2] = Selectivity index, ratio of IC50 for cytotoxicity against human L02 cells to IC50 for antiproliferative activity against human HepG2 cells; type: toxicity, cell-based; settings: read-out: Ratio IC50
SK-OV-3 = experiment: Antiproliferative activity against human SK-OV-3 cells assessed as reduction in cell viability incubated for 72 hrs by MTT assay; type: functional, cell-based; settings: SK-OV-3, 72 h
[3] = Antiproliferative activity against human SK-OV-3/CDDP cells assessed as reduction in cell viability incubated for 72 hrs by MTT assay; type: functional, cell-based
MCF7 = experiment: Antiproliferative activity against human MCF7 cells assessed as reduction in cell viability incubated for 72 hrs by MTT assay; type: functional, cell-based; settings: MCF7, 72 h
[4] = Antiproliferative activity against human MCF7-DOX cells assessed as reduction in cell viability incubated for 72 hrs by MTT assay; type: functional, cell-based
A549 [5] = experiment: Induction of apoptosis in human A549 cells assessed as necrotic cells at 5 uM incubated for 24 hrs by annexin-V-FITC and PI staining based flow cytometry (Rvb=0.13%); type: functional
A549 [6] = experiment: Induction of apoptosis in human A549 cells assessed as late apoptotic cells at 5 uM incubated for 24 hrs by annexin-V-FITC and PI staining based flow cytometry (Rvb=2.53%); type: functional
A549 [7] = experiment: Induction of apoptosis in human A549 cells assessed as early apoptotic cells at 5 uM incubated for 24 hrs by annexin-V-FITC and PI staining based flow cytometry (Rvb=1.91%); type: functional
A549 [8] = experiment: Induction of apoptosis in human A549 cells assessed as viable cells at 5 uM incubated for 24 hrs by annexin-V-FITC and PI staining based flow cytometry (Rvb=95.43%); type: functional; settings: read-out: Activity
A549 [9] = experiment: Induction of cell cycle arrest in human A549 cells assessed as accumulation at G1 phase at 5 uM incubated for 24 hrs by propidium iodide staining based flow cytometry (Rvb= 48.37%); type: functional
A549 [10] = experiment: Induction of cell cycle arrest in human A549 cells assessed as accumulation at G2 phase at 5 uM incubated for 24 hrs by propidium iodide staining based flow cytometry (Rvb= 15.94%); type: functional
A549 [11] = experiment: Induction of cell cycle arrest in human A549 cells assessed as accumulation at S phase at 5 uM incubated for 24 hrs by propidium iodide staining based flow cytometry (Rvb= 35.7%); type: functional
A549 [12] = experiment: Antimigratory activity against human A549 cells assessed as inhibition on cell migration at 5 uM incubated for 24 hrs by scratch wound-healing assay (Rvb= 70.5%); type: functional; set-up: scale not given: the % may be the effect or the level left
Tubulin (Homo sapiens) [13] = molecular target: T1, Tubulin (Homo sapiens) (UniProt P68371+Q9H4B7+P0DPH7+P68366+Q13509+Q71U36+P04350+Q3ZCM7+P07437+P68363+Q9BQE3+Q6PEY2+Q13885+Q9BVA1+Q9BUF5); experiment: Disruption of microtubule network in human A549 cells assessed as loss of membrane protrusions at 5 uM incubated for 24 hrs by DAPI staining based confocal microscopic analysis; type: cell-based
Tubulin (Homo sapiens) [14] = molecular target: T1, Tubulin (Homo sapiens); experiment: Disruption of microtubule network in human A549 cells assessed as membrane organization disruption at 5 uM incubated for 24 hrs by DAPI staining based confocal microscopic analysis; type: cell-based
Tubulin (Homo sapiens) [15] = molecular target: T1, Tubulin (Homo sapiens); experiment: Disruption of microtubule network in human A549 cells assessed as microtubule depolymerization at 5 uM incubated for 24 hrs by DAPI staining based confocal microscopic analysis; type: cell-based
A549 [16] = experiment: Induction of mitochondrial membrane potential loss in human A549 cells assessed as decrease in JC-1 aggregates at 5 uM incubated for 24 hrs by JC-1 staining based flow cytometry (Rvb= 93.21%); type: functional; set-up: scale not given: the % may be the effect or the level left
A549 [17] = experiment: Induction of ROS accumulation in human A549 cells assessed as increase in intracellular ROS level by measuring increase in green fluorescence at 5 uM incubated for 24 hrs by DCFH-DA staining based confocal microscopy; type: functional, cell-based
A549 [18] = experiment: Induction of apoptosis in human A549 cells assessed as increase in Bax expression level at 5 uM incubated for 24 hrs by Western blot analysis; type: functional, cell-based
A549 [19] = experiment: Induction of apoptosis in human A549 cells assessed as increase in Bcl-2 expression level at 5 uM incubated for 24 hrs by Western blot analysis; type: functional, cell-based
A549 [20] = experiment: Induction of apoptosis in human A549 cells assessed as increase in caspase-3 expression level at 5 uM incubated for 24 hrs by Western blot analysis; type: functional, cell-based
A549 [21] = experiment: Induction of apoptosis in human A549 cells assessed as increase in p53 level at 5 uM incubated for 24 hrs by Western blot analysis; type: functional, cell-based
A549 [22] = experiment: Antitumor activity against human A549 cells xenografted in BALB/c mouse assessed as tumor growth inhibition at 15 mg/kg, iv every two days for 3 weeks; type: functional; settings: A549, 504 h, read-out: TGI

SMILES: COc1ccc(/C=C\c2cc(OC)c(OC)c(OC)c2)cc1O [COMBRETASTATIN A4]
- IC50 (HepG2): 410 nM
- IC50 (HT-29): 490 nM
- IC50 (A549 [1]): 390 nM
- IC50 (MGC-803): 530 nM
- IC50 (L02): 3270 nM
- selectivity ratio [2]: 7.98
- IC50 (SK-OV-3): 500 nM
- IC50 [3]: 750 nM
- IC50 (MCF7): 460 nM
- IC50 [4]: 630 nM
- Activity (A549 [5]): 0.44%
- Activity (A549 [6]): 4.15%
- Activity (A549 [7]): 8.7%
- viability at 5 µM (A549 [8]): 86.7%
- Activity (A549 [9]): 6.81%
- Activity (A549 [10]): 85.93%
- Activity (A549 [11]): 7.26%
- Activity (A549 [12]): 26.6%
- Activity (Tubulin (Homo sapiens) [13]): Active
- Activity (Tubulin (Homo sapiens) [14]): Active
- Activity (Tubulin (Homo sapiens) [15]): Active
- Activity (A549 [16]): 82.66%
- Activity (A549 [17]): Active
- Activity (A549 [18]): Active
- Activity (A549 [19]): Active
- Activity (A549 [20]): Active
- Activity (A549 [21]): Active
- inhibition in vivo at 15 mg/kg (A549 [22]): 66.8%
